This note sets out measurements from PubChem BioAssay (NCI).

Each structure is given as a SMILES string. Several values for one entry are separate records, joined by “and”; a condition that tells them apart may be missing. Equal entries are not always repeated.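 Exposure lasted 48 hours, with cells grown in 96-well plates and compounds tested at five concentrations. Abbreviation: GI50, concentration required for 50% inhibition of growth. TGI marks complete inhibition of growth.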 Where only a bound is given, the exact number is not on record here.

What all share (assay): NCI tumour cell line growth inhibition, 48 h
The subject of assay [1] is A498 renal.
The test system of assay [2] is BT-549 breast.
The subject of assay [3] is HCT-116 colon.
Assay [4] deals with HL-60(TB) leukemia.
Assay [5] concerns M14 melanoma.
Assay [6] has as its system MDA-MB-231 breast.
Assay [7] deals with MDA-MB-435.
For assay [8], the system named is NCI-H226 lung.
For assay [9], the system named is OVCAR-5 ovarian.
The subject of assay [10] is UACC-257 melanoma.

`CC/C=C\C[C@H](O)C/C=C1/C(=O)C(Cl)=C[C@@H]1C/C=C\CCCC(=O)OC`: the GI50 in assay [1] was 3.65 µM; in assay [2], 0.341 µM; in assay [3], 0.275 µM; in [4], 0.453 µM; in assay [5], 0.611 µM; in assay [6], 0.71 µM. Also, the GI50 is 0.404 µM in assay [7], 0.537 µM in assay [8] and 0.754 µM in assay [9]. For the same compound, the TGI in assay [1] is 10.2 µM; in assay [2] it was 1.04 µM; in assay [3] it was 0.576 µM; in assay [4], 1.91 µM; in assay [5] it was 3.43 µM; in assay [6] it was 2.9 µM. Besides, the TGI in [7] was 1.22 µM; in assay [8] it was 2.26 µM; in [9], 3.07 µM.

Consider `COc1ccccc1/C=N\N/C(N)=N\N=C\c1ccccc1OC`, for which the GI50 in [1] was 0.372 µM; in assay [2], 0.785 µM; in assay [3], 0.358 µM; in assay [4], 0.215 µM; in assay [5] it was 0.266 µM; in assay [6], 2.58 µM. Further, the GI50 was 0.0235 µM in assay [7], 8.31 µM in [8], 3.36 µM in assay [9] and 4.29 µM in assay [10]. Besides, the TGI is 19.4 µM in assay [1]; 3.56 µM in assay [2]; 5.55 µM in assay [3]; 0.558 µM in [4]; 3.13 µM in assay [5]; over 60.3 µM in assay [6]. Moreover, the TGI was 0.0824 µM in [7], over 47 µM in [8], over 100 µM in assay [9] and over 23.6 µM in [10].

As to `O=CCC1CCCCC1`, the TGI in [1], in assay [2], in assay [3], in assay [5], in assay [6] and in [7] was over 100 µM throughout. Besides, the TGI in assay [8], in [9] and in [10] was over 100 µM in each case.

Regarding `O=C(Nc1ccc(Nc2ccncc2)cc1)c1ccc([N+](=O)[O-])cc1`, the GI50 in assay [1] was 2.43 µM; in [2], 11.6 µM; in assay [3] it was 2.93 µM; in assay [4], 4.43 µM; in assay [5], 7.18 µM; in assay [6], 3.44 µM. Further, the GI50 is 5.47 µM in assay [7], 12.1 µM in assay [8], 9.82 µM in [9] and 10.5 µM in assay [10]. Further, the TGI in assay [1] was 9 µM; in [2], 28.2 µM; in assay [3] it was 17 µM; in assay [4] it was over 24.6 µM; in [5], 26.9 µM; in [6] it was 14.9 µM. The TGI is 21.2 µM in assay [7], 29.7 µM in [8], over 44.7 µM in [9] and 26.2 µM in assay [10].

In the case of `CC1(C)S[C@@H]2[C@H](NC(=O)C3(N)CCCCC3)C(=O)N2[C@H]1C(=O)O`, the TGI in assay [1], in [2], in assay [3], in [4], in [5] and in assay [6] was over 100 µM throughout. Further, the TGI in assay [7], in [8], in assay [9] and in assay [10] was over 100 µM throughout.

With `CSc1nc(=O)n(CCC#N)nc1SC`, the TGI in assay [1] is over 100 µM; in assay [2], 55.1 µM; in assay [3] it was 30.1 µM; in assay [4], 30.7 µM; in assay [5], 39.9 µM; in assay [6], over 100 µM. In addition, the TGI in assay [7] was over 100 µM; in [8], 84.2 µM; in assay [9], over 100 µM.

For the compound `N=C(N)C1CN(CCc2c[nH]c3ccccc23)C(=O)NC1=O` (stereo not given), the TGI in assay [1], in assay [2], in [3], in assay [4], in assay [5] and in assay [6] was over 100 µM in each case. The TGI in assay [7], in assay [8], in assay [9] and in assay [10] was over 100 µM throughout.

In the case of `NC(=S)N/N=C/C(=O)O`, the GI50 in [1] is over 100 µM; in assay [2] it was over 100 µM; in [3], 14.7 µM; in assay [4], over 100 µM; in assay [5] it was over 100 µM; in [6], 81.6 µM. Also, the GI50 in assay [7] is over 100 µM; in [8], over 100 µM; in assay [9] it was over 100 µM; in [10] it was 30.1 µM. Further, the TGI in [1], in assay [2], in [3], in assay [4], in [5] and in assay [6] was over 100 µM throughout. Besides, the TGI in assay [7], in assay [8], in assay [9] and in assay [10] was over 100 µM in each case.

Regarding `COC(=O)C[C@](O)(CCCC(C)(C)O)C(=O)O[C@@H]1C(OC)=C[C@]23CCCN2CCc2cc4c(cc2[C@H]13)OCO4`, the GI50 in assay [1] was 0.0173 µM; in [2], 0.0288 µM; in assay [3], 0.134 µM and 0.0153 µM; in [4], 0.0249 µM; in [5], 0.0228 µM; in [6], 0.087 µM. Besides, the GI50 is 0.0279 µM in [7]; 0.0112 µM in assay [8]; 0.0489 µM in assay [9]; 0.205 µM and 0.0232 µM in [10]. The TGI in [1] was 0.146 µM and 0.0396 µM; in assay [4] it was 0.237 µM and 0.0758 µM; in [9] it was 2.93 µM and 0.556 µM; in assay [10] it was 0.839 µM and 0.0881 µM.
